Data set [1] has as its target DNA-PK phosphorylation at serine 2056 (Homo sapiens (Human), UniProt P78527). As to the kind of experiment: DNA-PK phosphorylation at serine 2056 (cellular), bleomycin-treated HCT116 cells, ELISA. The data set is classed as cell-based. Conditions: read-out: IC50 pDNA-PK. A digest of the protocol: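 Chemiluminescent ELISA read-out; phospho-specific signal normalised to total DNA-PKcs. Cells (HCT116) exposed 6 h to test compound plus 10 μM bleomycin to induce double-strand breaks; DMSO control served as blank.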

Another data set concerns the target Kv11.1 (hERG) (Homo sapiens (Human), UniProt Q12809). The data set is described as follows: Kv11.1 (hERG) ion channel activity (patch clamp assay), HEK293 cells transfected with hERG gene. For orientation: The hERG channel carries a current that helps repolarise heart muscle cells.
In the next data set the target is DNA-PK (Homo sapiens (Human), UniProt P78527). The data set is described as follows: DNA-PK assay (biochemical), flashplate 33P-ATP kinase assay. In outline:
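Radiometric kinase reaction in streptavidin-coated flashplates, stopped with 200 mM EDTA, then 30 min room-temperature incubation and saline washes.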

Setting [2] is: cellular DNA-PK phosphorylation at serine 2056, HCT116.
Where [3] appears, read: Ki [Kv1.11 hERG], hERG patch clamp assay (cells without asterisk).
The mark [4] stands for this setting: read-out: Ki [Kv1.11 hERG], Table 5.
The mark [5] stands for this setting: read-out: Ki [Kv1.11 hERG], hERG patch clamp assay (cells without asterisk).
Where [6] appears, read: cellular, HCT116 cells, 10 μM bleomycin, six hours.
[7] abbreviates: Ki [Kv1.11 hERG], patch clamp, HEK293 transfected with hERG gene.
The mark [8] stands for this setting: read-out: Ki [Kv1.11 hERG], patch clamp, HEK293 transfected with hERG gene.

Each structure is given as a SMILES string. Where two headings read alike, the source gives them in different places.

As usually defined, the IC50 is the concentration needed to halve the response being measured. By Ki is commonly meant a dissociation constant, usually derived from enzyme kinetics or from competition with a known ligand.

Sequence of Kv11.1 (hERG) (Q12809 whole entry): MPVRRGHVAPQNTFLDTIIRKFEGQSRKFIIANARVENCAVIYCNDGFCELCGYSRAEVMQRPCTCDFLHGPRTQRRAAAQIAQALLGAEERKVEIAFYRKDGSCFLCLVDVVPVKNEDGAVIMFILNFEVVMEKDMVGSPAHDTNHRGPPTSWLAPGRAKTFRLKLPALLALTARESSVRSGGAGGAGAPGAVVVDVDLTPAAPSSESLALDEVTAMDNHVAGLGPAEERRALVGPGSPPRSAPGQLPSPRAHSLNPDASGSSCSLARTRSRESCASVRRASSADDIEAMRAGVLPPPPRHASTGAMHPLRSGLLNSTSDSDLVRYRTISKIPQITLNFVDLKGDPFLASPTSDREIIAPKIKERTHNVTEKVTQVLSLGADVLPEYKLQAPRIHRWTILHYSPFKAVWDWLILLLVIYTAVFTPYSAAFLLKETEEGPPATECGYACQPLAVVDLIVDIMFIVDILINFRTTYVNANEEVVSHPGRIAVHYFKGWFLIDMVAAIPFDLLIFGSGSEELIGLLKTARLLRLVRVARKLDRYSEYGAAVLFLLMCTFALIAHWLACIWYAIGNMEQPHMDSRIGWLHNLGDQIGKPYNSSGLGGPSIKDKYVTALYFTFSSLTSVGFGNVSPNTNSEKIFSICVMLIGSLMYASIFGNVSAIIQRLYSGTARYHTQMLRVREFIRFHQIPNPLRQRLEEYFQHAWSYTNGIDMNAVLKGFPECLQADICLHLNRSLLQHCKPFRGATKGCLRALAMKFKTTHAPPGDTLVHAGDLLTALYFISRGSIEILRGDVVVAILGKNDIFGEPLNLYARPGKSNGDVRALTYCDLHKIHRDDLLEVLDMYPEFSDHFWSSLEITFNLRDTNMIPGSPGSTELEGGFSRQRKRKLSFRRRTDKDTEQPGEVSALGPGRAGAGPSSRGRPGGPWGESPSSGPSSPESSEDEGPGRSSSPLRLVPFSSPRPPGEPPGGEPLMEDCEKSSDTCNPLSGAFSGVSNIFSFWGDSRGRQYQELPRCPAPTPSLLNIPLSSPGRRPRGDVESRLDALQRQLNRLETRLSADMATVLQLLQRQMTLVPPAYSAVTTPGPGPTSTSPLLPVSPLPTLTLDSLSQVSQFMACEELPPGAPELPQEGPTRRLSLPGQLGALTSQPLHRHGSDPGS
Method for Kv11.1 (hERG): C) Kv11.1 (hERG) Ion Channel Activity (Patch Clamp Assay)
The patch-clamp measurement was carried out at room temperature in whole-cell configuration on human embryonic kidney cells (HEK293) which have been transfected in a stable manner with the hERG gene.
The whole-cell configurations were carried out using an automated patch clamp device (Patchliner™, Nanion Technologies, Munich). […] The glass chip has a hole of defined size to which the cell is transferred into the Gigaseal by application of a reduced pressure and brought into the whole-cell configuration. Buffer, cell suspension and test substances were added to microchannels of the chip using a Teflon-coated pipette. The cells were clamped to a holding potential of −80 mV. For measurement of substance-promoted inhibition of the Kv11.1 channel, the following voltage protocol was applied at 10-second intervals: 51 ms/−80 mV, 500 ms/+40 mV, 500 ms/−40 mV, 200 ms/−80 mV. The leakage current is subtracted by means of the P4 method. The cells were resuspended in extracellular buffer (EC) and applied to the chip. After the cell had been collected, the seal was improved by addition of a seal enhancer buffer. As soon as the whole-cell configuration had been reached, the seal enhancer buffer was washed out and replaced by extracellular buffer. The measurement started in EC for 1.5 min. DMSO (vehicle control, 0.1% of DMSO) was then applied, and the control current was recorded for 3 min. The test substance was subsequently added twice in the same concentration, and the potassium current was measured for 3.5 min in each case.
The reference substance used was the Kv11.1 (hERG) ion channel blocker quinidine. The effects of test substances and quinidine were standardised to the associated vehicle control. The effect on the Kv11.1 (hERG) channel activity was assessed from the potassium current at −40 mV. For the calculation, the current was evaluated for the respective final trace.
During the measurement, an aliquot of the test substance was taken for concentration determination. The sample was measured immediately by HPLC, and the final concentration was determined from a calibration curve.

`NC(=O)C(c1ccc(F)c(-c2ncnc3cc(N4CCOCC4)ccc23)c1)c1nncc2sccc12` (stereo not drawn) [Example 285, 2-[4-Fluoro-3-(7-morpholin-4-yl-quinazolin-4-yl)-phenyl]-2-thieno-[2,3-d}pyridazin-4-yl-acetamide]: the IC50 lay in the range of 10 to 30 µM in data set [1] (setting [2]) and 0.003 to 0.007 µM on DNA-PK (biochemical DNA-PK assay). The molecule further came in with an inhibition constant Ki at Kv11.1 (hERG) (setting [3]) of 15 to 25 µM.

As for `Cc1nccnc1C(O)c1ccc(F)c(-c2ncnc3cc(N4CCOCC4)cnc23)c1` (stereo not drawn) [Example 237, [4-Fluoro-3-(7-morpholin-4-ylpyrido[3,2-d]pyrimidin-4-yl)phenyl]-(3-methylpyrazin-2-yl)methanol], the IC50 in data set [1] (setting [2]) was under 0.5 µM; against DNA-PK (biochemical DNA-PK assay), under 0.003 µM. The molecule also gave a Ki on Kv11.1 (hERG) (setting [3]) of 10 to 15 µM.

On to `OC(c1cc(-c2ncnc3cc(N4CCOCC4)ccc23)ccc1F)c1cccc2nncn12` (stereo not drawn) [Example 373, [2-Fluoro-5-(7-morpholin-4-yl-quinazolin-4-yl)-phenyl]-[1,2,4]-triazolo[4,3-a]pyridin-5-ylmethanol], for which the IC50 in data set [1] (setting [2]) is 0.5 to 5 µM; against DNA-PK (biochemical DNA-PK assay), 0.003 to 0.007 µM. The same molecule came in with a Ki at Kv11.1 (hERG) (setting [3]) of 15 to 25 µM.

For the molecule `OC(c1cnc(F)c(-c2ncnc3cc(N4CCOCC4)ccc23)c1)c1nccs1` (stereo not drawn) [Example 180, [6-Fluoro-5-(7-morpholin-4-yl-quinazolin-4-yl)-pyridin-3-yl]thiazol-2-ylmethanol], the IC50 in data set [1] (Table 5, HCT116 cells) is 5 to 10 µM; against DNA-PK (Table 5) it was under 0.003 µM. Besides, the Ki on Kv11.1 (hERG) (setting [4]) was under 10 µM.

For the molecule `Cc1cnc(C(C(N)=O)c2ccc(F)c(-c3ncnc4cc(N5CCOCC5)ccc34)c2)c(C)n1` (stereo not drawn) [Example 318, 2-(3,5-Dimethyl-pyrazin-2-yl)-2-[4-fluoro-3-(7-morpholin-4-yl-quinazolin-4-yl)-phenyl]acetamide], the IC50 in data set [1] (setting [2]) lay in the range of 10 to 30 µM; against DNA-PK (biochemical DNA-PK assay) it was 0.007 to 0.03 µM. In addition, the inhibition constant (Ki) on Kv11.1 (hERG) (setting [5]) was over 25 µM.

Take `NC(=O)C(c1cc(-c2ncnc3cc(N4CCOCC4)ccc23)c(F)cc1F)c1nccn2cccc12` (stereo not drawn) [Example 348, 2-[2,4-Difluoro-5-(7-morpholin-4-yl-quinazolin-4-yl)-phenyl]-2-pyrrolo-[1,2-a]pyrazin-1-yl-acetamide]: the IC50 in data set [1] (setting [2]) is 0.5 to 5 µM; against DNA-PK (biochemical DNA-PK assay), under 0.003 µM. In addition, the Ki at Kv11.1 (hERG) (setting [3]) was in the range of 10 to 15 µM.

As for `Cc1nccnc1C(O)c1cc(-c2ncnc3cc(N4CCOCC4)cnc23)c(F)cc1Cl` (stereo not drawn) [Example 240, [2-Chloro-4-fluoro-5-(7-morpholin-4-yl-pyrido[3,2-d}-pyrimidin-4-yl)-phenyl]-(3-methyl-pyrazin-2-yl)-methanol], the IC50 in data set [1] (setting [2]) fell in the range of 0.5 to 5 µM; against DNA-PK (biochemical DNA-PK assay), 0.007 to 0.03 µM. In addition, at Kv11.1 (hERG) (setting [5]), the Ki is over 25 µM.

In the case of `OC(c1cc(-c2ncnc3cc(N4CCOCC4)ccc23)c(F)cc1F)c1cccc2nncn12` (stereo not drawn) [Example 350, [2,4-Difluoro-5-(7-morpholin-4-yl-quinazolin-4-yl)-phenyl]-[1,2,4]-triazolo[4,3-a]pyridin-5-ylmethanol], the IC50 in data set [1] (setting [2]) is 5 to 10 µM; on DNA-PK (biochemical DNA-PK assay), 0.003 to 0.007 µM. In addition, on Kv11.1 (hERG) (setting [5]), the Ki is over 25 µM.

Take `Cn1c(C(O)c2cc(-c3ncnc4cc(N5CCOCC5)ccc34)ccc2F)cccc1=O` (stereo not drawn) [Example 366, 6-{[2-Fluoro-5-(7-morpholin-4-yl-quinazolin-4-yl)-phenyl]hydroxy-methyl}-1-methyl-1H-pyridin-2-one]: the IC50 in data set [1] (setting [2]) fell in the range of 5 to 10 µM; against DNA-PK (biochemical DNA-PK assay) it was 0.007 to 0.03 µM. Besides, the Ki on Kv11.1 (hERG) (setting [5]) was over 25 µM.

With `Cn1ncc2c(C(O)c3cc(-c4ncnc5cc(N6CCOCC6)ccc45)ccc3Cl)ncnc21` (stereo not drawn) [Example 385, [2-Chloro-5-(7-morpholin-4-yl-quinazolin-4-yl)-phenyl]-(1-methyl-1H-pyrazolo[3,4-d}-pyrimidin-4-yl)-methanol], the IC50 lay in the range of 0.5 to 5 µM in data set [1] (setting [2]) and 0.007 to 0.03 µM at DNA-PK (biochemical DNA-PK assay). Besides, the Ki at Kv11.1 (hERG) (setting [5]) was over 25 µM.

As to `OC(c1cccc(-c2ncnc3cc(N4CCOCC4)ccc23)c1)c1nccs1` (stereo not drawn) [Example 150, [3-(7-Morpholin-4-ylquinazolin-4-yl)-phenyl]thiazol-2-yl-methanol], the IC50 in data set [1] (Table 5, HCT116 cells) is 5 to 10 µM; on DNA-PK (Table 5), 0.007 to 0.03 µM. Moreover, the Ki on Kv11.1 (hERG) (setting [4]) was over 25 µM.

Turning to `Cn1c(C(O)c2cc(-c3ncnc4cc(N5CCOCC5)ccc34)c(F)cc2Cl)nccc1=O` (stereo not drawn) [Example 368, 2-{[2-Chloro-4-fluoro-5-(7-morpholin-4-yl-quinazolin-4-yl)-phenyl]hydroxy-methyl}-3-methyl-3H-pyrimidin-4-one], the figures for the IC50 (in data set [1] (setting [2]); against DNA-PK (biochemical DNA-PK assay)) were 5 to 10 µM and 0.007 to 0.03 µM, respectively. Moreover, the Ki at Kv11.1 (hERG) (setting [5]) is over 25 µM.

Consider `Cc1cc(C(C(N)=O)c2cc(-c3ncnc4cc(N5CCOCC5)ccc34)c(F)cc2Cl)n(C)c(=O)c1` (stereo not drawn) [Example 334, 2-[2-Chloro-4-fluoro-5-(7-morpholin-4-yl-quinazolin-4-yl)-phenyl]-2-(1,4-dimethyl-6-oxo-1,6-dihydropyridin-2-yl)-acetamide], for which the figures for the IC50 (in data set [1] (setting [2]); against DNA-PK (biochemical DNA-PK assay)) were 10 to 30 µM and over 0.03 µM, respectively. Moreover, the Ki on Kv11.1 (hERG) (setting [5]) was over 25 µM.

`CSc1ccc(C(O)c2cc(-c3ncnc4cc(N5CCOCC5)ccc34)c(F)cc2Cl)nn1` (stereo not drawn) [Example 108, [2-Chloro-4-fluoro-5-(7-morpholin-4-yl-quinazolin-4-yl)-phenyl]-(6-methyl-sulfanylpyridazin-3-yl)methanol]: the IC50 was under 0.5 µM in data set [1] (setting [6]) and 0.003 to 0.007 µM at DNA-PK (enzymatic, 5 μM ATP). Moreover, the Ki on Kv11.1 (hERG) (setting [7]) is 15 to 25 µM.

Regarding `OC(c1cnccn1)c1cc(-c2ncnc3cc(N4CCOCC4)ccc23)c(F)cc1Cl` (stereo not drawn) [Example 34, [2-Chloro-4-fluoro-5-(7-morpholin-4-yl-quinazolin-4-yl)phenyl]-pyrazin-2-ylmethanol], the IC50 in data set [1] (setting [6]) was in the range of 5 to 10 µM; at DNA-PK (enzymatic, 5 μM ATP), 0.007 to 0.03 µM. Besides, the Ki on Kv11.1 (hERG) (setting [7]) was 15 to 25 µM.

As for `OC(c1ccc(F)c(-c2ncnc3cc(N4CCOCC4)sc23)c1)c1nccnc1Cl` (stereo not drawn) [Example 37, (3-Chloropyrazin-2-yl)-[4-fluoro-3-(6-morpholin-4-ylthieno[3,2-d]pyrimidin-4-yl)phenyl]-methanol], the IC50 in data set [1] (setting [6]) was under 0.5 µM; against DNA-PK (enzymatic, 5 μM ATP), under 0.003 µM. For the same molecule, at Kv11.1 (hERG) (setting [7]), the inhibition constant (Ki) was in the range of 10 to 15 µM.

Consider `Cn1c(C(O)c2cc(-c3ncnc4cc(N5CCOCC5)ccc34)c(F)cc2Cl)cccc1=O` (stereo not drawn) [Example 382, 6-{[2-Chloro-4-fluoro-5-(7-morpholin-4-yl-quinazolin-4-yl)-phenyl]hydroxy-melhyl}-1-methyl-1H-pyridin-2-one], for which the IC50 in data set [1] (setting [2]) lay in the range of 0.5 to 5 µM; at DNA-PK (biochemical DNA-PK assay) it was 0.007 to 0.03 µM. In addition, the inhibitory constant (Ki) on Kv11.1 (hERG) (setting [3]) is 15 to 25 µM.

`Cc1nccnc1C(O)c1cc(-c2ncnc3cc(N4CCOCC4)ccc23)c(F)cc1F` (stereo not drawn) [Example 86]: the IC50 in data set [1] (setting [6]) was under 0.5 µM; against DNA-PK (enzymatic, 5 μM ATP) it was under 0.003 µM. Moreover, on Kv11.1 (hERG) (setting [8]), the Ki was over 25 µM.

Consider `OC(c1ccc(F)c(-c2ncnc3cc(N4CCOCC4)ccc23)c1)c1cnccn1` (stereo not drawn) [Example 33, [4-Fluoro-3-(7-morpholin-4-yl-quinazolin-4-yl)phenyl]-pyrazin-2-ylmethanol], for which the half-maximal inhibitory concentration (IC50) in data set [1] (setting [6]) lay within 10 to 30 µM; on DNA-PK (enzymatic, 5 μM ATP), 0.007 to 0.03 µM. The Ki at Kv11.1 (hERG) (setting [8]) is under 10 µM.

For `Cn1c(C(O)c2ccc(F)c(-c3ncnc4cc(N5CCOCC5)ccc34)c2)cccc1=O` (stereo not drawn) [Example 91, 6-{[4-Fluoro-3-(7-morpholin-4-yl-quinazolin-4-yl)-phenyl]hydroxy-methyl}-1-methyl-1H-pyridin-2-one], the 50% inhibitory concentration (IC50) in data set [1] (setting [6]) was under 0.5 µM; against DNA-PK (enzymatic, 5 μM ATP), under 0.003 µM. In addition, the Ki at Kv11.1 (hERG) (setting [8]) was over 25 µM.

As to `OC(c1cc(F)c(F)c(-c2ncnc3cc(N4CCOCC4)ccc23)c1)c1nccs1` (stereo not drawn) [Example 171, [3,4-Difluoro-5-(7-morpholin-4-yl-quinazolin-4-yl)-phenyl]thiazol-2-yl-methanol], the IC50 was 0.5 to 5 µM in data set [1] (Table 5, HCT116 cells) and under 0.003 µM on DNA-PK (Table 5). The Ki at Kv11.1 (hERG) (setting [4]) was under 10 µM.

Regarding `Cn1nc(C(O)c2ccc(F)c(-c3ncnc4cc(N5CCOCC5)ccc34)c2)ccc1=O` (stereo not drawn) [Example 326, 6-{[4-Fluoro-3-(7-morpholin-4-yl-quinazolin-4-yl)-phenyl]hydroxy-methyl}-2-methyl-2H-pyridazin-3-one], the IC50 was 0.5 to 5 µM in data set [1] (setting [2]) and 0.007 to 0.03 µM against DNA-PK (biochemical DNA-PK assay). Further, the Ki at Kv11.1 (hERG) (setting [5]) is over 25 µM.

Take `OC(c1cnc(F)c(-c2ncnc3cc(N4CCOCC4)ccc23)c1)c1nccs1` (stereo not drawn) [Example 188, [6-Fluoro-5-(7-morpholin-4-yl-quinazolin-4-yl)-pyridin-3-yl]thiazol-2-ylmethanol]: the IC50 in data set [1] (Table 5, HCT116 cells) was 5 to 10 µM; against DNA-PK (Table 5), under 0.003 µM. For the same molecule, the Ki on Kv11.1 (hERG) (setting [4]) was over 25 µM.

As for `OCc1csc(C(O)c2cc(-c3ncnc4cc(N5CCOCC5)ncc34)c(F)cc2Cl)n1` (stereo not drawn) [Example 141, [2-chloro-4-fluoro-5-(7-morpholin-4-ylpyrido[4,3-d]pyrimidin-4-yl)phenyl]-(4-hydroxymethylthiazol-2-yl)methanol], the half-maximal inhibitory concentration (IC50) in data set [1] (Table 5, HCT116 cells) is 10 to 30 µM; on DNA-PK (Table 5) it was over 0.03 µM. The molecule further returned a Ki at Kv11.1 (hERG) (Ki [Kv1.11 hERG], Table 5) of 15 to 25 µM.

Regarding `COc1ccc(C(C(N)=O)c2cc(-c3ncnc4cc(N5CCOCC5)ccc34)c(F)cc2F)nn1` (stereo not drawn) [Example 306, 2-[2,4-Difluoro-5-(7-morpholin-4-yl-quinazolin-4-yl)-phenyl]-2-(6-methoxy-pyridazin-3-yl)acetamide], the IC50 fell in the range of 10 to 30 µM in data set [1] (setting [2]) and 0.007 to 0.03 µM on DNA-PK (biochemical DNA-PK assay). Further, on Kv11.1 (hERG) (setting [5]), the Ki is over 25 µM.

The values above are taken from patent publication US9732094B2, “Arylquinazolines” (Merck Patent GmbH, priority 2013, dated 2017).
